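Values below derive from 48-hour exposures of cells grown in 96-well plates, with endpoints linearly interpolated between the two concentrations bracketing the appropriate inhibition level. The concentration for full growth arrest is given as TGI.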
Legend:
Assay in all cases: growth of human tumour cells (NCI), 48 h
NCI-H23 lung = tested on: NCI-H23 lung
SK-MEL-28 melanoma = tested on: SK-MEL-28 melanoma
UO-31 renal = tested on: UO-31 renal
HT29 colon = tested on: HT29 colon
DMS 273 small cell lung = tested on: DMS 273 small cell lung
IGROV1 ovarian = tested on: IGROV1 ovarian
HOP-62 NSCLC = tested on: HOP-62 NSCLC
U251 CNS = tested on: U251 CNS
EKVX NSCLC = tested on: EKVX NSCLC
UACC-62 melanoma = tested on: UACC-62 melanoma
NCI-H226 lung = tested on: NCI-H226 lung
XF 498 CNS = tested on: XF 498 CNS
SK-MEL-5 melanoma = tested on: SK-MEL-5 melanoma
NCI-H460 lung = tested on: NCI-H460 lung
UACC-257 melanoma = tested on: UACC-257 melanoma
ACHN renal = tested on: ACHN renal
SK-OV-3 ovarian = tested on: SK-OV-3 ovarian
MALME-3M melanoma = tested on: MALME-3M melanoma
TK-10 renal = tested on: TK-10 renal
RXF-631 renal = tested on: RXF-631 renal
DMS 114 small cell lung = tested on: DMS 114 small cell lung
DLD-1 colon = tested on: DLD-1 colon
RXF 393 renal = tested on: RXF 393 renal
SK-MEL-2 melanoma = tested on: SK-MEL-2 melanoma
CCRF-CEM leukemia = tested on: CCRF-CEM leukemia
SNB-19 CNS = tested on: SNB-19 CNS
SF-295 CNS = tested on: SF-295 CNS
OVCAR-4 ovarian = tested on: OVCAR-4 ovarian
OVCAR-3 ovarian = tested on: OVCAR-3 ovarian
KM12 colon = tested on: KM12 colon
SNB-75 CNS = tested on: SNB-75 CNS
SF-539 CNS = tested on: SF-539 CNS
SN12C renal = tested on: SN12C renal
NCI-H522 lung = tested on: NCI-H522 lung
HOP-92 NSCLC = tested on: HOP-92 NSCLC
786-0 renal = tested on: 786-0 renal
OVCAR-8 ovarian = tested on: OVCAR-8 ovarian
SF-268 CNS = tested on: SF-268 CNS
A549 NSCLC = tested on: A549 NSCLC
SW-620 colon = tested on: SW-620 colon
LXFL 529 NSCLC = tested on: LXFL 529 NSCLC
HL-60(TB) leukemia = tested on: HL-60(TB) leukemia
SNB-78 CNS = tested on: SNB-78 CNS
MOLT-4 leukemia = tested on: MOLT-4 leukemia
M19-MEL melanoma = tested on: M19-MEL melanoma
HCT-116 colon = tested on: HCT-116 colon
K-562 leukemia = tested on: K-562 leukemia
OVCAR-5 ovarian = tested on: OVCAR-5 ovarian
M14 melanoma = tested on: M14 melanoma
CAKI-1 renal = tested on: CAKI-1 renal
SR leukemia = tested on: SR leukemia
HCC-2998 colon = tested on: HCC-2998 colon
KM20L2 colon = tested on: KM20L2 colon
HCT-15 colon = tested on: HCT-15 colon
COLO 205 colon = tested on: COLO 205 colon
HOP-18 NSCLC = tested on: HOP-18 NSCLC
LOX IMVI melanoma = tested on: LOX IMVI melanoma
RPMI-8226 leukemia = tested on: RPMI-8226 leukemia
A498 renal = tested on: A498 renal

Measured: TGI

CC(C)(C)OC(=O)N1C2CCCC23O[C@@H]1c1cc2c(cc1C3=O)OCO2 (stereo partly drawn)
83.2 µM: RXF 393 renal
87.1 µM: CAKI-1 renal
56.8 µM: SNB-75 CNS
67 µM: UACC-62 melanoma
82.9 µM: SF-295 CNS
40.2 µM: OVCAR-3 ovarian
26.1 µM: SK-MEL-5 melanoma
31.3 µM: NCI-H522 lung
38.3 µM: HL-60(TB) leukemia
94 µM: SK-OV-3 ovarian
> 100 µM: NCI-H23 lung | SK-MEL-28 melanoma | UO-31 renal | HT29 colon | DMS 273 small cell lung | IGROV1 ovarian | HOP-62 NSCLC | U251 CNS | EKVX NSCLC | NCI-H226 lung | XF 498 CNS | NCI-H460 lung | UACC-257 melanoma | ACHN renal | MALME-3M melanoma | TK-10 renal | RXF-631 renal | DMS 114 small cell lung | DLD-1 colon | SK-MEL-2 melanoma | CCRF-CEM leukemia | SNB-19 CNS | OVCAR-4 ovarian | KM12 colon | SN12C renal | HOP-92 NSCLC | 786-0 renal | OVCAR-8 ovarian | SF-268 CNS | A549 NSCLC | SW-620 colon | LXFL 529 NSCLC | SNB-78 CNS | MOLT-4 leukemia | M19-MEL melanoma | HCT-116 colon | K-562 leukemia | OVCAR-5 ovarian | M14 melanoma | SR leukemia
55.4 µM: SF-539 CNS

Nc1ccc(C2=N/C(=C\c3cccc(N)c3)C(=O)O2)cc1
> 100 µM: NCI-H23 lung | SK-MEL-28 melanoma | UO-31 renal | HT29 colon | HCC-2998 colon | IGROV1 ovarian | U251 CNS | EKVX NSCLC | UACC-62 melanoma | KM20L2 colon | XF 498 CNS | SK-MEL-5 melanoma | ACHN renal | SK-OV-3 ovarian | MALME-3M melanoma | TK-10 renal | RXF-631 renal | DMS 114 small cell lung | DLD-1 colon | RXF 393 renal | SK-MEL-2 melanoma | CCRF-CEM leukemia | SNB-19 CNS | SF-295 CNS | OVCAR-4 ovarian | OVCAR-3 ovarian | KM12 colon | SF-539 CNS | SN12C renal | NCI-H522 lung | HOP-92 NSCLC | 786-0 renal | OVCAR-8 ovarian | HCT-15 colon | SF-268 CNS | A549 NSCLC | SW-620 colon | LXFL 529 NSCLC | HL-60(TB) leukemia | SNB-78 CNS | MOLT-4 leukemia | M19-MEL melanoma | COLO 205 colon | K-562 leukemia | OVCAR-5 ovarian | M14 melanoma | CAKI-1 renal | SR leukemia

O=C1C2[C@@H](C(=O)N1c1ccc(Br)cc1)C13C(=CC2([N+](=O)[O-])[C@@H]2C(=O)N(c4ccc(Br)cc4)C(=O)[C@@H]21)c1ccccc1N3c1ccccc1 (stereo partly drawn)
24.2 µM: SF-268 CNS
38.7 µM: UO-31 renal
31.1 µM: 786-0 renal
> 100 µM: NCI-H23 lung | SK-MEL-28 melanoma | HOP-18 NSCLC | HCC-2998 colon | U251 CNS | EKVX NSCLC | NCI-H226 lung | XF 498 CNS | UACC-257 melanoma | ACHN renal | MALME-3M melanoma | TK-10 renal | RXF-631 renal | LOX IMVI melanoma | DMS 114 small cell lung | DLD-1 colon | RXF 393 renal | SK-MEL-2 melanoma | CCRF-CEM leukemia | SNB-19 CNS | SF-295 CNS | OVCAR-3 ovarian | KM12 colon | SNB-75 CNS | SF-539 CNS | SN12C renal | NCI-H522 lung | HOP-92 NSCLC | OVCAR-8 ovarian | HCT-15 colon | A549 NSCLC | SW-620 colon | RPMI-8226 leukemia | HL-60(TB) leukemia | SNB-78 CNS | MOLT-4 leukemia | M19-MEL melanoma | COLO 205 colon | K-562 leukemia | OVCAR-5 ovarian | M14 melanoma | SR leukemia

NC(=S)N/N=C1\CCCC\C1=C/c1ccccc1
70.4 µM: OVCAR-5 ovarian
37.9 µM: NCI-H522 lung
44.4 µM: UACC-257 melanoma
84.4 µM: MOLT-4 leukemia
> 100 µM: NCI-H23 lung | SK-MEL-28 melanoma | UO-31 renal | HOP-18 NSCLC | HCC-2998 colon | HOP-62 NSCLC | U251 CNS | EKVX NSCLC | UACC-62 melanoma | KM20L2 colon | NCI-H460 lung | ACHN renal | SK-OV-3 ovarian | MALME-3M melanoma | TK-10 renal | RXF-631 renal | LOX IMVI melanoma | DMS 114 small cell lung | DLD-1 colon | RXF 393 renal | SK-MEL-2 melanoma | CCRF-CEM leukemia | SNB-19 CNS | SF-295 CNS | OVCAR-4 ovarian | OVCAR-3 ovarian | KM12 colon | SNB-75 CNS | SF-539 CNS | SN12C renal | HOP-92 NSCLC | 786-0 renal | OVCAR-8 ovarian | HCT-15 colon | SF-268 CNS | A549 NSCLC | SW-620 colon | LXFL 529 NSCLC | A498 renal | SNB-78 CNS | M19-MEL melanoma | COLO 205 colon | HCT-116 colon | K-562 leukemia | M14 melanoma
82.6 µM: DMS 273 small cell lung
38.2 µM: RPMI-8226 leukemia
71.5 µM: IGROV1 ovarian
50.3 µM: HT29 colon
4.74 µM: HL-60(TB) leukemia
